Columns and labels:
Brain = assay: Permeability across brain in Tg2576 mouse at 100 mg/kg, po; type: ADME, organism-based; set-up: dose 100 mg/kg, route oral; settings: in vivo
[1] = Ratio of AUC in brain to plasma in Tg2576 mouse; type: ADME; settings: brain and plasma, read-out: Ratio AUC

SMILES	permeability (Brain) [%]	Kp [1]
COc1ccc([C@]2(c3cccc(-c4cccnc4)c3)N=C(N)N(C)C2=O)cc1C	15	
COc1ccc([C@]2(c3cccc(-c4cccnc4F)c3)N=C(N)N(C)C2=O)cc1C	10	
COc1ccc([C@]2(c3cccc(-c4cccnc4OC)c3)N=C(N)N(C)C2=O)cc1C	7	
COc1ccc([C@]2(c3cccc(-c4cncnc4)c3)N=C(N)N(C)C2=O)cc1C	5	
CN1C(=O)[C@@](c2ccc(OC(F)(F)F)cc2)(c2cccc(-c3cccnc3)c2)N=C1N	10	
CN1C(=O)[C@@](c2ccc(OC(F)(F)F)cc2)(c2cccc(-c3cccnc3F)c2)N=C1N	10	
CN1C(=O)[C@@](c2ccc(OC(F)F)cc2)(c2cccc(-c3cc(F)cnc3F)c2)N=C1N	9	
CN1C(=O)[C@@](c2ccc(OC(F)F)cc2)(c2cccc(-c3cccnc3F)c2)N=C1N	9	
CN1C(=O)[C@](c2ccccc2)(c2ccc(OC(F)F)cc2)N=C1N	90	
CN1C(=O)C(c2ccccc2)(c2ccccc2)N=C1N	81	0.8
CN1C(=O)[C@@](c2ccc(OC(F)(F)F)cc2)(c2ccc(F)c(-c3cncnc3)c2)N=C1N		0.1
NC1=NC(c2ccccc2)(c2ccccc2)C2=NCCCN12		1
COc1ccc([C@]2(c3ccc(F)c(-c4cccnc4F)c3)N=C(N)N(C)C2=O)cc1C		0.1
